Square brackets hold non-standard residues; d marks the D form. Peptide text beside a SMILES is read from it. pGlu = O=C1CC[C@@H](C(=O)O)N1
What was measured:
[1] = tested on: adult females of the firebug, Pyrrhocoris apterus (L.); settings: adult female firebugs, cited from earlier work; for walking activity: simultaneously with elevation of lipid level in the haemolymph
[2] = tested on: Albino Swiss mice; settings: cited from earlier work
[3] = tested on: Albino Swiss mice; settings: administered intracerebroventricularly to mice; cited from earlier work
[4] = tested on: Albino Swiss mice; settings: cited from earlier work; remark: listed apart in the source
[5] = tested on: Albino Swiss mice; settings: injection to Albino Swiss mice (20-25 g); cited from earlier work
[6] = tested on: BALB/c ByJ mice; assay: Locomotor activity test (open field); assay type: in vivo; settings: for locomotion enhancing effects in the locomotor activity test: male balb-c mice
Experimental: (§1) Male, inbred BALB/c ByJ mice (Uludag University, Bursa, Turkey), 7-8 weeks old at their arrival to the laboratory, were used in this study. They were kept in the laboratory for two weeks before the onset of the experiments. Mice were maintained under standard laboratory conditions (12-h light: 12-h dark cycle, lights on 07:00 h, T=21±1°C). All animals received food and water ad libitum. All procedures described in this assay were conducted in accordance with the European Community Council's Directive for the ethical treatment of animals (86/609/EEC) and with the approval of the Kocaeli University Medical Faculty (7/3/2014).
(§2) In the FST, EPM, and locomotor activity tests, the animals were treated with Ani-AKH (1 and 2 mg/kg) (n=9-10), Lia-AKH (1 and 2 mg/kg) (n=10-12) and Pht-HrTH (1 and 2 mg/kg) (n=10-12) or vehicle (saline with 1% DMSO) (n= 10) for 14 days (chronically) and the drugs were administered intraperitoneally (i.p.) 60 min. before each test in a volume of 0.1 ml/10 g body weight. Separate group of animals used in each test.
Locomotor activity was measured using an open field test in a square arena (40 x 40 x 40 cm box). The animal was placed in the center of the apparatus and behaviours were recorded for a period of 5 min using the Etovision-XT video tracking system. The locomotor activity was evaluated by measuring the total distance travelled (cm) in the apparatus and the speed (cm/s) of the animals.
(§3) The results of the FST, EPM, locomotor activity tests were evaluated by one-way ANOVA followed by Tukey's post-hoc test when significant differences were detected. The data are expressed as the mean values ± SEM. The differences were considered to be statistically significant when p was less than 0.05.

[7] = tested on: BALB/c ByJ mice; assay: Forced Swim Test (FST); assay type: in vivo; settings: for immobility time: 60 min before test, compared to control group, Fig 1a/1b; for antidepressant effects in the forced swimming test: male balb-c mice
Experimental: as §1, §2
The FST employed was similar to a previously described method (Porsolt et al, 1977). Briefly, the mice were dropped individually into Plexiglas cylinders (height 25 cm, diameter 10 cm) containing 10 cm of water maintained at 23-25°C and left there for 6 min. Because this is a situation from which they cannot escape, the animals rapidly become immobile, that is, floating in an upright position and making only small movements to keep their heads above water. The duration of immobility was recorded during the last 4 min of the 6-min testing period.
as §3

[8] = tested on: BALB/c ByJ mice; assay: Elevated Plus-Maze Test (EPM); assay type: in vivo
Experimental: as §1, §2
In addition, in the EPM (acute) test, Ani- AKH (0.5 and 1 mg/kg) (n= 10 per group) was also administered, just for one time, before the test to investigate the acute effect of the hormone.
Anxiety related behaviour was measured by the elevated plus-maze test. Experiments were conducted in a dimly lit, semi-soundproof room, illuminated with table lamp (80 lux). Maze was made of wood and consisted of two open (29 cm long × 5 cm wide) and closed arms (29 cm × 5 cm with 15 cm high walls) forming a square cross with a 5 cm square center piece. In order to avoid falls the open arms was surrounded by a short (1 cm) Plexiglas edge. The maze was elevated 40 cm above the floor. Each mice was placed at the center of the maze, facing one of the open arms, and was allowed to explore the maze. The open-arm activity was evaluated as: 1) time spent in the open arms relative to the total time spent in the plus maze (300 s), expressed as a percentage 2) number of entries into the open arms relative to the total number of entries into both open and closed arms, expressed as a percentage. These values were accepted as indexes of anxiety in mice.
as §3

[9] = tested on: Emperor dragonfly, Anax imperator; settings: low concentrations of the synthetic peptide injected into the Emperor dragonfly; cited from earlier work
[10] = chronic, 1 mg/kg i.p. for 14 days, Fig 2c/2e
[11] = chronic, 1 mg/kg i.p. for 14 days, Fig 2d/2f
[12] = chronic, 2 mg/kg i.p. for 14 days, Fig 2c/2e
[13] = chronic, 2 mg/kg i.p. for 14 days, Fig 2d/2f
[14] = 2 mg/kg i.p. for 14 days, compared to control, Fig 3a/3c
[15] = 2 mg/kg i.p. for 14 days, compared to control, Fig 3b/3d

NCCc1ccc(O)c(O)c1 [dopamine]
AKHs level in haemolymph [1]: decreased
level of AKHs in CNS [1]: no effect
mobilization of the fat body lipids [1]: mobilized
walking activity [1]: capable to enhance

NCCc1c[nH]c2ccc(O)cc12 [serotonin]
mobilization of the fat body lipids [1]: mobilized

NC[C@H](O)c1ccc(O)c(O)c1 [norepinephrine]
AKHs level in haemolymph [1]: increased
level of AKHs in CNS [1]: no effect
mobilization of the fat body lipids [1]: mobilized
walking activity [1]: capable to enhance

NCC(O)c1ccc(O)cc1 (stereo not shown) [octopamine]
mobilization of the fat body lipids [1]: mobilized

[pGlu]VNFSPNW-NH2 [periplanetin CC-1]
mortality in pentetrazole-induced seizures [2]: increased
threshold for tonic seizures ([2]; pentetrazole-induced seizures): decreased
peripheral blood glucose level [3]: did not increase
influence on the electric convulsions [4]: no influence
analgesic activity [5]: strong analgesic activity

NCCc1c[nH]cn1 [histamine]
mobilization of the fat body lipids [1]: mobilized

CC(C)C[C@H](NC(=O)[C@@H]1CCC(=O)N1)C(=O)N[C@H](C(=O)N[C@@H](Cc1ccccc1)C(=O)N[C@@H](CO)C(=O)N1CCC[C@H]1C(=O)N[C@@H](CC(=O)O)C(=O)N[C@@H](Cc1c[nH]c2ccccc12)C(N)=O)[C@@H](C)O [Pht-HrTH, 5-oxo-L-prolyl-L-leucyl-L-threonyl-L-phenylalanyl-L-seryl-L-prolyl-L-alfa-aspartyl-L-Tryptophanamide] ([pGlu]LTFSPDW-NH2)
locomotion enhancing effects in the locomotor activity test ([6]; dose not given, i.p.): had locomotion enhancing effects
total distance moved ([6]; dose not printed in the sentence (groups 1 and 2 mg/kg i.p. for 14 days), Fig 3c): increased
speed of the animals ([6]; dose not printed in the sentence (groups 1 and 2 mg/kg i.p. for 14 days), Fig 3d): increased
immobility time ([7]; 1 mg/kg i.p. for 14 days): significantly diminished
antidepressant effects in the forced swimming test ([7]; 1 mg/kg i.p.): had antidepressant effects
immobility time ([7]; 2 mg/kg i.p. for 14 days): significantly diminished
antidepressant effects in the forced swimming test ([7]; 2 mg/kg i.p.): had antidepressant effects
%time spent in the open arms [8, 10]: significantly increased
%open arm/total arm entries [8, 11]: significantly increased
%time spent in the open arms [8, 12]: significantly increased
%open arm/total arm entries [8, 13]: significantly increased
anxiolytic effects in the elevated plus maze test ([8]; given chronically, 1 mg/kg): had anxiolytic effects
anxiolytic effects in the elevated plus maze test ([8]; given chronically, 2 mg/kg): had anxiolytic effects

CC(C)[C@H](NC(=O)[C@@H]1CCC(=O)N1)C(=O)N[C@@H](CC(N)=O)C(=O)N[C@@H](Cc1ccccc1)C(=O)N[C@@H](CO)C(=O)N1CCC[C@H]1C(=O)N[C@@H](CO)C(=O)N[C@@H](Cc1c[nH]c2ccccc12)C(N)=O [Ani-AKH, 5-oxo-L-prolyl-L-valyl-L-asparaginyl-L-phenylalanyl-L-seryl-L-prolyl-L-seryl-L-Tryptophanamide] ([pGlu]VNFSPSW-NH2)
haemolymph lipid concentration [9]: increased
total distance moved [6, 14]: increased
speed of the animals [6, 15]: increased
locomotion enhancing effects in the locomotor activity test ([6]; 2 mg/kg i.p.): had locomotion enhancing effects
immobility time ([7]; 1 mg/kg i.p. for 14 days): significantly diminished
antidepressant effects in the forced swimming test ([7]; 1 mg/kg i.p.): had antidepressant effects
immobility time ([7]; 2 mg/kg i.p. for 14 days): significantly diminished
antidepressant effects in the forced swimming test ([7]; 2 mg/kg i.p.): had antidepressant effects
%time spent in the open arms ([8]; acute, 0.5 mg/kg i.p., one time before the test, Fig 2a): significantly increased
%open arm/total arm entries ([8]; acute, 1 mg/kg i.p., one time before the test, Fig 2b): significantly increased
anxiolytic effects in the elevated plus maze test ([8]; administered acutely, 0.5 mg/kg): had anxiolytic effects
anxiolytic effects in the elevated plus maze test ([8]; administered acutely, 1 mg/kg): had anxiolytic effects
%time spent in the open arms [8, 10]: didn't alter
%open arm/total arm entries [8, 11]: didn't alter
%time spent in the open arms [8, 12]: didn't alter
%open arm/total arm entries [8, 13]: didn't alter

CC(C)[C@H](NC(=O)[C@@H]1CCC(=O)N1)C(=O)N[C@@H](CC(N)=O)C(=O)N[C@@H](Cc1ccccc1)C(=O)N[C@H](C(=O)N1CCC[C@H]1C(=O)N[C@@H](CO)C(=O)N[C@@H](Cc1c[nH]c2ccccc12)C(N)=O)[C@@H](C)O [Lia-AKH, 5-oxo-L-prolyl-L-valyl-L-asparaginyl-L-phenylalanyl-L-threonyl-L-prolyl-L-seryl-L-Tryptophanamide] ([pGlu]VNFTPSW-NH2)
total distance moved ([6]; 1 mg/kg i.p. for 14 days, compared to control, Fig 3c): increased
speed of the animals ([6]; 1 mg/kg i.p. for 14 days, compared to control, Fig 3d): increased
locomotion enhancing effects in the locomotor activity test ([6]; 1 mg/kg i.p.): had locomotion enhancing effects
total distance moved [6, 14]: increased
speed of the animals [6, 15]: increased
locomotion enhancing effects in the locomotor activity test ([6]; 2 mg/kg i.p.): had locomotion enhancing effects
immobility time ([7]; 1 mg/kg i.p. for 14 days): significantly diminished
antidepressant effects in the forced swimming test ([7]; 1 mg/kg i.p.): had antidepressant effects
immobility time ([7]; 2 mg/kg i.p. for 14 days): significantly diminished
antidepressant effects in the forced swimming test ([7]; 2 mg/kg i.p.): had antidepressant effects
%time spent in the open arms [8, 12]: significantly increased
%open arm/total arm entries [8, 13]: significantly increased
anxiolytic effects in the elevated plus maze test ([8]; given chronically, 2 mg/kg): had anxiolytic effects
